Tests used:
human FPR2 = human FPR2 (Homo sapiens (Human), UniProt P25090); experiment: FPR2 cyclic adenosine monophosphate (cAMP) assay; type: cell-based; conditions: CHO cells overexpressing human FPR2; forskolin 5 μM, IBMX 200 μM; inhibition of cAMP production, HTRF; read-out: hFPR2 cAMP2 EC50
Summary of the method: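 CHO cells overexpressing human FPR2 (2,000/well) or FPR1 (4,000/well) incubated 30 min at room temperature with compound (0.020 nM–100 μM, 1% DMSO), IBMX 200 μM and forskolin (5 μM for FPR2, 10 μM for FPR1). Intracellular cAMP read by HTRF against a cAMP standard curve; inhibition of cAMP production fitted to a 4-parameter logistic.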

human FPR1 = human FPR1 (Homo sapiens (Human), UniProt P21462); experiment: FPR1 cyclic adenosine monophosphate (cAMP) assay; type: cell-based; conditions: CHO cells overexpressing human FPR1; forskolin 10 μM, IBMX 200 μM; inhibition of cAMP production, HTRF; read-out: hFPR1 cAMP EC50
Summary of the method: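 CHO cells overexpressing human FPR1 (4,000 per well) were incubated 30 min at room temperature with compound (0.020 nM–100 μM, 1% DMSO), 10 μM forskolin and 200 μM IBMX. Intracellular cAMP was read by HTRF. Inhibition of cAMP production was fitted to a 4-parameter logistic equation.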

human FPR1, sequence (P21462 whole entry): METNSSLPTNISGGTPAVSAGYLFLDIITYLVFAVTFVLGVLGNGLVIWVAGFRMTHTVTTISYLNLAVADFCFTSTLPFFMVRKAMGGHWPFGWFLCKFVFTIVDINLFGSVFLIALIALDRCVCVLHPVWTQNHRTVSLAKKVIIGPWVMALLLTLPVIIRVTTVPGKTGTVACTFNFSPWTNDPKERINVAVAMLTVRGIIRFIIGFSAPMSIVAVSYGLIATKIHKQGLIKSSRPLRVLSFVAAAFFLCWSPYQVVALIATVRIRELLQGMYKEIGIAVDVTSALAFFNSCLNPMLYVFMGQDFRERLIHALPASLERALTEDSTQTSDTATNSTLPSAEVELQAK
human FPR2, sequence (P25090 whole entry): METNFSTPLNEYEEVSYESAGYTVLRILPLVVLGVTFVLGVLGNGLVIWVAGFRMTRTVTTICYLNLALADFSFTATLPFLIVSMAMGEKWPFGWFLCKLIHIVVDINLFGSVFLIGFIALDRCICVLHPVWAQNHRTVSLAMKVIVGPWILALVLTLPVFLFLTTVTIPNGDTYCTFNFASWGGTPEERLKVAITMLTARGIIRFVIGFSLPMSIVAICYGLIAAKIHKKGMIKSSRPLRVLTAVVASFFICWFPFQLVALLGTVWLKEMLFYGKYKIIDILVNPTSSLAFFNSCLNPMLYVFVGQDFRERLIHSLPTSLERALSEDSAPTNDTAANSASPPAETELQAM

| SMILES | EC50 (human FPR2) [µM] | EC50 (human FPR1) [µM] |
| --- | --- | --- |
| CC1C[C@@H](NC(=O)Nc2ccc(Cl)cc2F)C(=O)N1c1ccc(-c2ccccc2S(C)(=O)=O)c(F)c1F (stereo partly drawn) [Example 129] | 0.0024 | 0.019 |
| O=C(Nc1ccc(Cl)cc1)N[C@@H]1CCN(c2ccc(-c3cccnc3F)c(F)c2F)C1=O [Example 19] | 0.022 | 0.078 |
| CC1C[C@@H](NC(=O)Nc2ccc(C(F)(F)F)cc2F)C(=O)N1c1ccc(-c2cccnc2P(C)(C)=O)c(F)c1F (stereo partly drawn) [Example 128] | 0.001 | 0.024 |
| CC(C)c1cc(-c2cccnc2NS(C)(=O)=O)ccc1N1CC[C@@H](NC(=O)Nc2ccc(Cl)cc2F)C1=O [Example 47] | 0.0028 | 0.064 |

Other lines, results leading:

| EC50 (human FPR2) [µM] | EC50 (human FPR1) [µM] | SMILES |
| --- | --- | --- |
| 0.007 | 0.19 | CS(=O)(=O)c1ccccc1-c1ccc(N2CC[C@@H](NC(=O)Nc3ccc(C(F)(F)F)cc3F)C2=O)c(F)c1F [Example 29] |
| 0.001 | 0.19 | CS(=O)(=O)Nc1ccccc1-c1ccc(N2CC[C@@H](NC(=O)Nc3ccc(C(F)(F)F)cc3)C2=O)c(F)c1F [Example 6] |
| 0.002 | 0.092 | CCP(=O)(CC)c1ncccc1-c1ccc(N2CC[C@@H](NC(=O)Nc3ccc(C(F)(F)F)cc3F)C2=O)c(F)c1F [Example 100] |
| 0.0029 | 0.27 | CP(C)(=O)c1ccccc1-c1ccc(N2CC[C@@H](NC(=O)Nc3ccc(C(F)(F)F)cc3F)C2=O)c(Cl)c1F [Example 98] |
| 0.0018 | 0.012 | CP(C)(=O)c1ccccc1-c1ccc(N2CC[C@@H](NC(=O)Nc3ccc(C(F)(F)F)cc3F)C2=O)c(F)c1C(F)(F)F [Example 94] |

Reference: patent US10676431B2, “Phenylpyrrolidinone formyl peptide 2 receptor agonists” (BRISTOL-MYERS SQUIBB COMPANY, priority 2018, dated 2020)
